{
  "source": "patent US9980936B2",
  "about": "“BH4 antagonists and methods related thereto” (Emory University, priority 2014, dated 2018)",
  "key": {"[1]": {"molecular_target": "T1, purified, human Bcl2 protein (Homo sapiens, UniProt P10415)", "T1 sequence (P10415 whole entry)": "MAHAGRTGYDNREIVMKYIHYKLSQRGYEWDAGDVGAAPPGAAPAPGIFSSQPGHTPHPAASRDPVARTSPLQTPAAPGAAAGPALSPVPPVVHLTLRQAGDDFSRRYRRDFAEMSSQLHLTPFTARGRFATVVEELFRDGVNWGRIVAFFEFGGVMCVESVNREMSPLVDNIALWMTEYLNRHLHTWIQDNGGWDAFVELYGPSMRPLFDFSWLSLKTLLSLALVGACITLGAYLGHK", "assay": "competition fluorescence polarization assay (FITC-QDCMWSGFSA peptide)", "format": "binding", "details": "3 nM peptide, 6 nM Bcl2", "experimental": "Thus, the change of mP reflects the interaction between the fluorescent-labeled peptide and the Bcl2 protein. Data (i.e. mP value) can be imported into Prism 3.0 to determine the dissociation constant (Kd) and the binding range for each peptide.\nThis interaction between Bcl2 and the peptide forms the basis for the fluorescence polarization assay.\nThe plate was mixed on a shaker for 1 min and incubated at room temperature for an additional 15 min. The polarization, as defined as mP units, was measured at room temperature with a fluorescence microplate reader (Wallace, Calif.). A negative control (DMSO, 3 nM peptide and assay buffer) and a positive control (DMSO, 3 nM peptide, 6 nM Bcl2 and assay buffer) were used to determine the range of the assay."}, "[2]": {"test_system": "BH4 domain deficient Bcl2 mutant protein (ΔBH4)", "assay": "fluorescence polarization assay with fluorescent Bak peptide", "format": "binding", "protocol": "(§1) Purified recombinant WT and a panel of Bcl2 BH domain deletion mutant proteins (i.e. ΔBH1, ΔBH2, ΔBH3 and ΔBH4) were commercially obtained from ProteinX Lab. To directly measure BDA-2/Bcl2 binding, a fluorescence polarization assay with a fluorescent Bak peptide (5′-[…]) was performed."}, "Bcl2": {"molecular_target": "Bcl2 (Homo sapiens, UniProt P10415)", "sequence (P10415 whole entry)": "as above", "assay": "fluorescence polarization assay with fluorescent Bak peptide", "format": "binding", "protocol": "as §1"}, "[3]": {"test_system": "Bcl2 ΔBH1 deletion mutant protein", "assay": "fluorescence polarization assay with fluorescent Bak peptide", "format": "binding", "protocol": "as §1"}, "[4]": {"test_system": "Bcl2 ΔBH2 deletion mutant protein", "assay": "fluorescence polarization assay with fluorescent Bak peptide", "format": "binding", "protocol": "as §1"}, "[5]": {"test_system": "Bcl2 ΔBH3 deletion mutant protein", "assay": "fluorescence polarization assay with fluorescent Bak peptide", "format": "binding", "protocol": "as §1"}, "Bcl-XL": {"molecular_target": "Bcl-XL (Homo sapiens, UniProt Q07817)", "sequence (Q07817 whole entry, species assumed)": "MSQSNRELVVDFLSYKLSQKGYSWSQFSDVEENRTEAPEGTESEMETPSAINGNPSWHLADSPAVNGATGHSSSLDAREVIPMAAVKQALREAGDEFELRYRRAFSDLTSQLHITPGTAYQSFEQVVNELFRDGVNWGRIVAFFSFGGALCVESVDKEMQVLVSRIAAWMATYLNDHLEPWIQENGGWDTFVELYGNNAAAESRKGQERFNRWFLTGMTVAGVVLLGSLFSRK", "assay": "binding to other Bcl2 family members"}, "Bfl-1/A1": {"molecular_target": "Bfl-1/A1 (Homo sapiens, UniProt Q16548)", "sequence (Q16548 whole entry)": "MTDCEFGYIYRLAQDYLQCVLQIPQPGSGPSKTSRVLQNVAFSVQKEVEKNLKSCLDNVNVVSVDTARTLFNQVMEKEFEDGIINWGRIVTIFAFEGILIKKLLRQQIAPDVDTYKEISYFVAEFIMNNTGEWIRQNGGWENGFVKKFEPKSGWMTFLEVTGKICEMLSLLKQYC", "assay": "binding to other Bcl2 family members"}, "human lung cancer cells": {"test_system": "human lung cancer cells", "assay": "screening of cytotoxicity by sulforhodamine B (SRB) assay", "format": "cell-based", "details": "among top 200 docked small molecules", "description": "A library containing approximately 300,000 small molecules from the National Cancer Institute (NCI) was used to dock the structural pocket of the BH4 domain. The small molecules were ranked according to their energy scores. The top 200 small molecules were selected for screening of cytotoxicity in human lung cancer cells by sulforhodamine B (SRB) assay."}, "[6]": {"test_system": "NSCLC cell lines H157, Calu-1, H358, H460, H1975 and SCLC cell lines DMS53, DMS153, H146, H69", "assay": "cell growth (SRB) and apoptosis (Annexin V/PI), lines with higher Bcl2", "format": "cell-based", "details": "relatively higher levels of Bcl2", "protocol": "(§2) The effect of BDA-2 on cell growth and apoptosis was measured by SRB assay and Annexin V/PI binding, respectively, in both small cell lung cancer (SCLC) and non-small cell lung cancer (NSCLC) cell lines that express various levels of endogenous Bcl2."}, "[7]": {"test_system": "NSCLC cell lines A549 and H1299; SCLC cell lines DMS114 and H128", "assay": "cell growth (SRB) and apoptosis (Annexin V/PI), lines with lower or undetectable Bcl2", "format": "cell-based", "details": "relatively lower or undetectable levels of endogenous Bcl2", "protocol": "as §2"}, "[8]": {"test_system": "H460, H157, DMS53, DMS153 and H146 cells expressing Bcl2 shRNA", "assay": "apoptotic cell death (Annexin-V/PI, FACS) after Bcl2 shRNA knock-down", "format": "cell-based", "details": "1 μM, 72 h", "experimental": "To determine whether Bcl-2 is the relevant target at the cellular level and whether cell killing is truly dependent on this particular mechanism, Bcl2 was specifically knocked down using three different Bcl2 shRNAs that target different regions in Bcl2 gene in five lung cancer cell lines, including two NSCLC cell lines (H460 and H157) and three SCLC cell lines (DMS53, DMS153 and H146). […] Cells expressing Bcl2 shRNA1, shRNA2, shRNA3 or control shRNA were treated with BDA-2 (1 μM) for 72 h. The level of apoptotic cell death was determined by analysis of Annexin-V/PI binding by FACS."}, "[9]": {"test_system": "H460 or DMS53 cells expressing Bcl2 shRNA transfected with AAAA Bcl2 mutant", "assay": "rescue of Bcl2-silenced cells with AAAA Bcl2 mutant", "format": "cell-based", "details": "72 h", "description": "Whether expression of exogenous Bcl2 can restore the sensitivity of Bcl2-silenced lung cancer cells to BDA-2 and whether the BDA-2/BH4 binding is important for such effect was examined. WT and BDA-2 binding deficient D10A/N11A/R12A/E13A (AAAA) Bcl2 mutant cDNA in pCIneo or vector-only control were transfected into H460 or DMS53 cells expressing Bcl2 shRNA. It has been reported that if the shRNA is directed to the 3′ UTR or 5′ UTR of the gene, the effect of the shRNA1 can be rescued by ectopically expressing the protein using the wild-type or mutant cDNA. Because Bcl2 shRNA1 targets the 5′UTR of endogenous Bcl2, the silencing effect of shRNA1 on Bcl2 expression could be rescued by transfection of exogenous WT or AAAA Bcl2 mutant. After transfection, cells were treated with BDA-2 or the BH3 mimetic ABT-199 at the indicated concentrations for 72 h. […] The apoptotic effect of BDA-2 on lung cancer cells requires its BH4 binding."}, "[10]": {"molecular_target": "T1, purified, human Bcl2 protein", "assay": "in vitro cell-free Bcl2 conformational change assay (IP with anti-Bcl2/BH3 domain antibody)", "format": "biochemical", "protocol": "To test whether BDA-2 directly induces Bcl2 conformational change, an in vitro cell-free assay was employed. Purified recombinant Bcl2 protein was incubated with increasing concentrations of BDA-2 in lysis buffer, followed by immunoprecipitation (IP) using the anti-Bcl2/BH3 domain antibody."}, "H460 cells [11]": {"test_system": "H460 cells", "assay": "H460 cells: Bcl2/BH3 immunofluorescence, Bcl2 expression, mitochondrial dysfunction", "format": "cell-based"}, "H460 cells [12]": {"test_system": "H460 cells", "assay": "co-IP of Bcl2 with Bax and Bim", "format": "cell-based", "experimental": "To test whether BDA-366-induced Bcl2 conformational change increases interaction between Bcl2 and Bax in cells, co-IP experiments were performed following treatment of H460 cells with BDA-366."}, "[13]": {"test_system": "wild type (WT) and Bax knockout (Bax−/−) MEF cells", "assay": "apoptotic effect on WT and Bax knockout MEF cells", "format": "cell-based", "protocol": "To further determine whether Bax is important for BDA-2 induction of apoptosis, the apoptotic effect of BDA-366 was tested on wild type (WT) and Bax knockout (Bax−/−) MEF cells. […] To test whether BDA-2/BH4 binding affects the IP3R/Bcl2 interaction and Ca2+ release, H460 cells were treated with increasing concentrations of BDA-366 for 24 h."}, "H460 cells [14]": {"test_system": "H460 cells", "assay": "autophagy (LC3-II, GFP-LC3)", "format": "cell-based", "protocol": "Bcl2 directly interacts with Beclin-1 and suppresses Beclin-1-dependent autophagy. Inhibition of Bcl2 by ABT-737 not only induces apoptosis but also autophagy. […] To test whether disruption of Bcl2 BH4 by BDA-2 stimulates autophagy, H460 cells were treated with BDA-366 (1 μM) for 24 h. […] To further quantify the level of autophagy, a GFP-LC3 construct was used to indicate autophagosomes."}, "H460 cells [15]": {"test_system": "H460 cells", "assay": "SRB cell growth assay, combination with mTOR inhibitor", "format": "cell-based, human", "details": "BDA-366 100 nM, RAD001 1 nM, alone or in combination, 72 hr", "protocol": "Cell growth was analyzed by sulforhodamine B (SRB) colorimetric assay."}, "[16]": {"test_system": "human lung cancer cell lines", "assay": "sensitivity of lung cancer cell lines versus ABT-737", "format": "cell-based"}, "[17]": {"test_system": "lung cancer xenografts derived from H460 cells", "assay": "H460 lung cancer xenografts", "experimental": "Each group included 8 mice. Tumor volume was measured once every 2 days. After 14 days, the mice were sacrificed and the tumors were removed and analyzed.\nTo assess whether BDA-366 induced suppression of tumor growth via apoptosis in vivo, representative samples from harvested tumor tissues were analyzed by immunohistochemistry (IHC) for active caspase 3 or TUNEL assat."}, "[18]": {"details": "10, 20, 30 mg/kg/d i.p., 14 days"}},
  "note": "“Also recorded” adds a separate entry of the source. Like-named read-outs stand apart in the source and are kept apart here.",
  "data": [
    {"smiles": "CCN(CC)CC(O)CNc1ccc(NCC2CO2)c2c1C(=O)c1ccccc1C2=O", "note": "(stereo not shown) [BDA-366, 1-((3-(diethylamino)-2-hydroxypropyl)amino)-4-((oxiran-2-ylmethyl)amino)anthracene-9,10-dione]", "values": [
      {"measurement": "Ki", "setting": "[1]", "result": "0.93 ± 0.08", "unit": "nM"},
      {"measurement": "binding to ΔBH4 Bcl2", "setting": "[2]", "result": "failed to bind"},
      {"measurement": "Ki", "setting": "Bcl2; fluorescent Bak peptide, WT Bcl2", "result": "3.3 ± 0.73", "unit": "nM"},
      {"measurement": "inhibitory constant (Ki) value", "setting": "Bcl2; purified Bcl2 protein, BH4 domain", "result": "nanomolar level"},
      {"measurement": "binding after deletion of BH1", "setting": "[3]", "result": "did not significantly affect its BDA-2 binding"},
      {"measurement": "binding after deletion of BH2", "setting": "[4]", "result": "did not significantly affect its BDA-2 binding"},
      {"measurement": "binding after deletion of BH3", "setting": "[5]", "result": "did not significantly affect its BDA-2 binding"},
      {"measurement": "binding to Bcl-XL", "setting": "Bcl-XL", "result": "failed to bind"},
      {"measurement": "binding to Bcl-XL", "setting": "Bcl-XL; listed as BDA-2", "result": "did not bind"},
      {"measurement": "binding to Bfl-1/A1", "setting": "Bfl-1/A1", "result": "failed to bind"},
      {"measurement": "binding to Bfl-1/A1", "setting": "Bfl-1/A1; listed as BDA-2", "result": "did not bind"},
      {"measurement": "activity against human lung cancer cells", "setting": "human lung cancer cells", "result": "most potent activity"},
      {"measurement": "sensitivity of cells", "setting": "[6]", "result": "more sensitive"},
      {"measurement": "sensitivity of cells", "setting": "[7]", "result": "less sensitive"},
      {"measurement": "sensitivity (apoptotic cell death) after depletion of endogenous Bcl2", "setting": "[8]", "result": "significantly reduced sensitivity"},
      {"measurement": "sensitivity of cells restored after expression of AAAA Bcl2", "setting": "[9]", "result": "not"},
      {"measurement": "direct induction of Bcl2 conformational change (BH3 exposure)", "setting": "[10]", "result": "enhanced the ability of the Bcl2/BH3 domain-specific antibody to bind Bcl2"},
      {"measurement": "Bcl2 expression level", "setting": "H460 cells [11]", "result": "did not significantly affect Bcl2 expression level"},
      {"measurement": "Bcl2 immunofluorescence with Bcl2/BH3-domain specific antibody", "setting": "H460 cells [11]", "result": "enhanced significantly"},
      {"measurement": "mitochondrial dysfunction and apoptosis", "setting": "H460 cells [11]; MitoSOX red staining, Cyt c release, PARP cleavage", "result": "resulted in mitochondrial dysfunction"},
      {"measurement": "Bcl2/Bax interaction", "setting": "H460 cells [12]", "result": "enhanced Bcl2/Bax interaction"},
      {"measurement": "Bcl2/Bim binding", "setting": "H460 cells [12]", "result": "decreased Bcl2/Bim binding"},
      {"measurement": "resistance of Bax deficient MEF cells compared to WT MEF cells", "setting": "[13]", "result": "significantly resistant"},
      {"measurement": "levels of LC3-II", "setting": "H460 cells [14]; 1 μM, 24 h", "result": "Increased levels of LC3-II"},
      {"measurement": "percentage of GFP-LC3vac cells", "setting": "H460 cells [14]; compared to DMSO control", "result": "significantly increases"},
      {"measurement": "cell growth inhibition", "setting": "H460 cells [15]", "result": "partially inhibited lung cancer cell growth"},
      {"measurement": "sensitivity of most human lung cancer cell lines relative to ABT-737", "setting": "[16]", "result": "more sensitive to BDA2 than ABT-737"},
      {"measurement": "body weight", "setting": "[17]; 30 mg/kg", "result": "Weight loss was observed"},
      {"measurement": "neutrophils, lymphocytes, RBC and platelets in blood", "setting": "[17]; 30 mg/kg", "result": "no decreases in neutrophils, lymphocytes, red blood cells (RBC) and platelets (PLT)"},
      {"measurement": "apoptosis in tumor tissues (active caspase 3 IHC or TUNEL)", "setting": "[17]; [18]", "result": "dose-dependent apoptosis induction"},
      {"measurement": "tumor growth / repression of lung cancer in vivo", "setting": "[17]; [18]", "result": "potently suppress lung cancer growth in vivo; also recorded: dose-dependent repression of lung cancer in vivo"},
      {"measurement": "tumor growth / repression of lung cancer in vivo", "setting": "[17]; 10, 20, 30 mg/kg/d i.p., 14 days, listed as BDA-2", "result": "represses lung cancer in vivo"},
      {"measurement": "histopathology of harvested normal tissues", "setting": "[17]; 10-30 mg/kg/d", "result": "no evidence of normal tissue toxicities"},
      {"measurement": "kidney (BUN) and liver (ALT and AST) function", "setting": "[17]; mouse, in vivo", "result": "in the normal range"}
    ]}
  ]
}
